# Measured values taken from patent publication US20130303564A1, “METHOD FOR TREATING A NEURODEGENERATIVE DISORDER” (RUSH UNIVERSITY MEDICAL CENTER, priority 2012, published 2013).
# What was measured:
# human iNOS promoter = conditions: phiNOS(7.2)Luc; 6 h preincubation, IL-1β 20 ng/ml 12 h
# Method: (§1) Primary mouse microglia were treated with different concentrations of NaPB for 6 h followed by stimulation with LPS under serum-free condition. After 24 h of stimulation, concentrations of nitrite were measured in supernatants (A) and the level of iNOS protein was monitored in cells by Western blot (B). […] After 5 h of stimulation, the expression of iNOS mRNA was monitored by semi-quantitative RT-PCR (C). Cells preinctibated with different concentration of trichostatin A (TSA) and sodium butyrate (NaBu) for 6 h were stimulated with LPS for 24 h under serum-free condition followed by monitoring the level of nitrite in supernatants (p). […] Primary human astroglia isolated from fetal brain tissues were treated with different concentrations of NaPB for 6 h followed by stimulation with IL-1β under serum-free condition. After 48 h of stimulation, concentrations of nitrite (E) were measured in supernatants. Human astroglia plated at 70-80% confluence in 12-well plates were co-transfected with 0.25 μg of phiNOS(7.2)Luc and 12.5 ng of pRL-TK using the Lipofectamine-Plus (Invitrogen). Twenty-four h after transfection, cells received NaPB. After 6 h of incubation, cells were stimulated with IL-1β (20 ng/ml) for 12 h. Firefly (ff-Luc) and Renilla (r-Luc) luciferase activities were obtained by analyzing the total cell extract (F).
# primary human astroglia = conditions: 6 h preincubation, IL-1β 48 h
# Method: as §1
# IL-1β = conditions: 200 mg/kg body wt/d from 3 h after last MPTP; RT-PCR, real-time PCR
# Method: (§2) A) Mice were treated with NaPB (200 mg/kg body wt/d) from 3 h after the last injection of MPTP. […] The mRNA expression of TNF-α, iNOS and IL-1β was analyzed by semi-quantitative RT-PCR (C) and quantitative real-time PCR (D).
# (§3) Semi-quantitative RT-PCR analysis for proinflammatory molecules (iNOS, IL-1β and TNF-α) and glial cell markers: Total RNA was isolated from ventral midbrain using Ultraspec-II RNA reagent (Biotecx .Laboratories, Inc., Houston, Tex.) following manufacturer's protocol. To remove any contaminating genomic DNA, total RNA was digested with DNase. RT-PCR was carried out using a RT-PCR kit (Clontech., Mountain View, Calif.) and following primers.
# (§4) Real-time PCR analysis: It was performed in the ABI-Prism7700 sequence detection system (Applied Biosystems, Foster City, Calif.) using TaqMan Universal Master mix and optimized concentrations of FAM-labeled probes and primers.
# TNF-α [1] = conditions: 200 mg/kg body wt/d from 3 h after last MPTP; RT-PCR, real-time PCR
# Method: as §2, §3, §4
# iNOS [2] = test system: iNOS
# Method: as §2, §3, §4
# MPTP-intoxicated mice = test: HPLC analysis of striatal dopamine in acute MPTP-intoxicated mice; type: in vivo, mouse; conditions: NaPB 200 mg/kg body wt/day from 3 h after last MPTP; 7 days; MPTP alone about 76% decrease
# Method: Mice receiving NaPB (200 mg/kg body wt/day) from 3 h after the last injection of MPTP were sacrificed 7d after the last injection of MPTP followed by TH immunostaining of SNpc (A) and striatum (B), counting of TH-positive neurons in SNpc (C), quantification of TH-positive fibers in striatum (D), assay of neurotransmitters in striatum (E), and quantification of GSH in nigra (F). Data are means+SEM of eight mice per group. ^ap<0.0001 vs saline group; ^bp<0.0001 vs the MPTP group.
# Animals and MPTP intoxications: Six- to eight-week old C57BL/6 mice were purchased from Harlan, Indianapolis, Ind. For acute MPTP intoxication, mice received four intraperitoneal (i.p.) injections of MPTP-HCl (18 mg/kg of free base; Sigma Chemical Co., St. Louis, Mo.) in saline at 2 hr intervals. Control animals received only saline.
# (§7) HPLC analysis of striatal dopamine and its metabolite levels: Striatal level of dopamine, DOPAC (3,4-dihydroxyphenylacetic acid) and HVA (homovanillic acid) was quantified. […] After pH adjustment and filtration, lOul of supernatant was injected onto an Eicompak SC-3ODS column (Complete Stand-Alone HPLC-ECD System EiCOMITTEC-500 from JM Science Inc., Grand Island, N.Y.) and analyzed following manufacturer's protocol.
# NF-κB = test: DNA-binding activity of NF-κB by EMSA in BV-2 microglial cells; type: cell-based, mouse; conditions: NaPB different concentrations, 6 h preincubation, LPS 1 h
# Method: Results represent three independent experiments.
# Activation of NF-κB was monitored by IκBαphosphorylation, DNA binding activity by EMSA and transcriptional activity by reporter assays.
# Electrophoretic Mobility Shift Assay (EMSA): Nuclear extracts were prepared and EMSA was carried out. […] Six-micrograms of nuclear extract was incubated with binding buffer and with IR-labeled probe for 20 min. Subsequently, samples were separated on a 6% polyacrylamide gel in 0.25× TBE buffer (Tris borate-EDTA) and analyzed by Odyssey Infrared Imaging System (LI-COR Biosciences).
# BV-2 microglial cells = conditions: 500 μM, 6 h, 1 μM MPP+ 15 min
# Method: Cells were treated with 500 μM NaPB for 6 h followed by stimulation with 1 μM MPP+. At 15 min of stimulation, the generation of ROS was monitored by carboxy-H2DCFDA (A).
# We examined if Parkinsonian toxin MPP+ induced the production of ROS from microglia and if NaPB could attenuate such ROS production. To monitor the generation of intracellular ROS in BV-2 microglial cells, we used a cell-permeant fluorescent probe.
# Monitoring microglial ROS production: Cells, cultured in 8-well chamber slides, were treated with MPP+ under serum-free condition. At different time points of stimulation, supernatants were removed and cells were washed with Hank's buffered salt solution (HBSS) followed by addition of 100 μl of 25 μM carboxy-H2DCFDA to each well for 30 min of incubation. During the last five minutes of incubation, Hoechst 33342 was added to each well at a dilution of 1:1000 for staining nuclei. Cells were then washed with HBSS, mounted with DPX mounting media and observed under an Olympus 1×81 fluorescent microscope.
# TNF-α [3] = conditions: different concentrations, 6 h preincubation, 1 μM MPP+ 5 h
# Method: (§5) Mouse BV-2 microglial cells were treated with different concentrations of NaPB for 6 h followed by stimulation with 1 μM. MPP under serum-free condition. After 5 h of stimulation, the mRNA expression of iNOS, IL-1β and TNF-α was monitored by semi-quantitative RT-PCR (A) and quantitative real-time PCR (C, iNOS; D, IL-1β; E, TNF-α). After 24 h of stimulation, the protein expression of iNOS was monitored by Western blot (B).
# (§6) Glial inflammation is a critical component of PD pathogenesis which is mirrored in MPTP mouse models. The neurotoxic effect of MPTP depends on its conversion into MPP+. In glial cells, MAO-B converts MPTP to MPP+, which then leads to glial activation. MPP+ is able to stimulate the microglial expression of inflammatory molecules including NO, TNF-α, IL-1β, and IL-6. Although, a well characterized receptor for MPP+ was not known in microglial cells until recent past, low dose of MPP+ stimulates microglial activation via the engagement of cysteinyl leukotriene receptor (CysLT1R), MPP+ dependent activation of CysLT1R and its subsequent translocation from plasma membrane to cytosol plays a critical role in the process of microglial activation. Therefore, we investigated MPP+ could induce the expression of proinflammatory molecules microglia and if NaPB suppressed such induction.
# as §4
# iNOS [4] = test system: iNOS; remark: listed apart in the source
# Method: as §5, §6, §4
# [5] = test system: chronic MPTP mouse model of PD; conditions: oral 100 mg/kg body wt/d from the third injection of MPTP/probenecid
# Method: A) Six to eight week old male C57BL/6 mice received 10 injections of MPTP (s.c.; 25 mg/kg body weight) together with 10 injections of probenecid (i.p.; 250 mg/kg body weight) for 5 weeks. Control group of mice received only saline. One group of mice were treated with NaPB (100 mg/kg body weight/d) via gavage from the 3rd injection of MPTP/probenecid and continued for 1 week thereafter. Mice were tested for different motor tasks [horizontal activity (C), number of movements (D), rearing (E), and stereotypy (F)] one week after the last injection of MPTP followed by measuring the level of DA in striatum (B). Data are means+SEM of eight mice per group. ^ap<0.001 vs saline; ^bp<0.001 vs MPTP; p<0.05 vs saline; ^dp<0.05 vs MPTP.
# We examined if NaPB was capable of protecting neurons in a chronic model (FIG. 10A). […] We initiated oral NaPB treatment (100 mg/kg body wt/d) from the third injection of MPTP/probenecid (FIG. 10A). […]
# as §7
# p21^rac = conditions: 500 μM preincubation
# Method: D) Cells preincubated with 500 μM NaPB were stimulated with LPS. At different time points, activation of p21^ras and p21^rac was monitored. Results represent three independent experiments.
substance,measurement,setting,value
sodium phenylbutyrate [NaPB],IL-1β-induced activation of iNOS promoter,human iNOS promoter,markedly inhibited
same,IL-1β-induced production of NO,primary human astroglia,markedly inhibited
same,MPTP-induced mRNA expression of IL-1β in the nigra,IL-1β,strongly inhibited
same,MPTP-induced mRNA expression of TNF-α in the nigra,TNF-α [1],strongly inhibited
same,MPTP-induced mRNA expression of iNOS in the nigra,"iNOS [2]; 200 mg/kg body wt/d from 3 h after last MPTP, RT-PCR, real-time PCR",strongly inhibited
same,"expression of iNOS mRNA in the nigra, time course","iNOS [2]; 200 mg/kg body wt/d gavage from 1 d prior to MPTP, all time points tested (up to 24 h)",markedly inhibited
same,MPTP-induced expression of iNOS protein,"iNOS [2]; 200 mg/kg body wt/d oral from 3 h after last MPTP, 24 h",suppressed
same,decrease in striatal dopamine,MPTP-intoxicated mice,20-25%
same,LPS-induced DNA-binding activity of NF-κB,NF-κB,inhibited
same,MPP+-induced production of intracellular ROS,BV-2 microglial cells,strongly inhibited
same,MPP+-induced expression of TNF-α mRNA,TNF-α [3],inhibited
same,MPP+-induced iNOS mRNA expression,"iNOS [4]; 6 h preincubation, 1 μM MPP+ 5 h",suppressed
same,MPP+-induced iNOS protein expression,"iNOS [4]; 6 h preincubation, 1 μM MPP+ 24 h, Western blot",suppressed
same,RasV12-induced expression of iNOS mRNA,"iNOS [4]; RasV12-transfected cells, NaPB 6 h",attenuated
same,striatal DA,[5],significantly protected
same,LPS-induced activation of p21^rac,p21^rac,markedly suppressed
